Source: the supplement of paper PMC6045584
± gives the standard deviation of the averaged measurements.

Experiments:
CANERTINIB [1] = compound: T1, C=CC(=O)Nc1cc2c(Nc3ccc(F)c(Cl)c3)ncnc2cc1OCCCN1CCOCC1 [CANERTINIB]; assay: surviving fraction relative to DMSO-only wells; higher = less growth inhibition; details: exposure time: 5 days
How it was run: (§1)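 Each tumour cell line was screened three times, and only lines with replicate Pearson r >0.7 and median Z' >0.3 were kept. Cells in log phase were seeded at 250–500 per well in 384-well plates, left 24 hours, then exposed continuously for five days to inhibitors at 0.5, 1, 5, 10, 50, 100, 500 and 1000 nM. Viability was read as CellTiter-Glo luminescence, with surviving fraction normalised to the median of DMSO-only wells.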

SNX-5422 [2] = compound: T2, CC1(C)CC(=O)c2c(C(F)(F)F)nn(-c3ccc(C(N)=O)c(N[C@H]4CC[C@H](OC(=O)CN)CC4)c3)c2C1 [SNX-5422]; assay: as above; details: exposure time: 5 days
How it was run: as §1

SAPACITABINE [3] = compound: T3, CCCCCCCCCCCCCCCC(=O)Nc1ccn([C@@H]2O[C@H](CO)[C@@H](O)[C@@H]2C#N)c(=O)n1 [SAPACITABINE]; assay: as above; details: exposure time: 5 days
How it was run: as §1

BI-2536 [4] = compound: T4, CC[C@@H]1C(=O)N(C)c2cnc(Nc3ccc(C(=O)NC4CCN(C)CC4)cc3OC)nc2N1C1CCCC1 [BI-2536]; assay: as above; details: exposure time: 5 days
How it was run: as §1

AFATINIB [5] = compound: T5, CN(C)C/C=C/C(=O)Nc1cc2c(Nc3ccc(F)c(Cl)c3)ncnc2cc1O[C@H]1CCOC1 [AFATINIB]; assay: as above; details: exposure time: 5 days
How it was run: as §1

MDV3100 [6] = compound: T6, CNC(=O)c1ccc(N2C(=S)N(c3ccc(C#N)c(C(F)(F)F)c3)C(=O)C2(C)C)cc1F [MDV3100]; assay: as above; details: exposure time: 5 days
How it was run: as §1

[7] = compound: Cn1cc(C2=Nc3cc(NC(=O)C(N)C4CCCCC4)cc4c3C2=CNNC4=O)cn1; assay: as above; details: exposure time: 5 days
How it was run: as §1

TIOGUANINE [8] = compound: T7, Nc1nc2[nH]cnc2c(=S)[nH]1 [TIOGUANINE]; assay: as above; details: exposure time: 5 days
How it was run: as §1

CANERTINIB [9] = compound: T1, CANERTINIB; assay: area under dose-response curve of surviving fraction (unscaled, Aref=0) (surviving fraction x log10(nM)); higher = more resistant; details: exposure time: 5 days; dose range 0.5-1000 nM
How it was run: (§2)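 Inhibitor was applied to tumour cell lines at eight concentrations (0.5 to 1000 nM) for five days in 384-well plates. Luminescence from CellTiter-Glo, scaled to DMSO-only wells, gave surviving fractions in three screens per line, and these were fitted by 3-parameter logistic regression with the drc R package. The area under the curve is an unscaled activity area. Aref was 0, and dose was on a log10 scale.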

SNX-5422 [10] = compound: T2, SNX-5422; assay: as above; details: exposure time: 5 days; dose range 0.5-1000 nM
How it was run: as §2

SAPACITABINE [11] = compound: T3, SAPACITABINE; assay: as above; details: exposure time: 5 days; dose range 0.5-1000 nM
How it was run: as §2

BI-2536 [12] = compound: T4, BI-2536; assay: as above; details: exposure time: 5 days; dose range 0.5-1000 nM
How it was run: as §2

AFATINIB [13] = compound: T5, AFATINIB; assay: as above; details: exposure time: 5 days; dose range 0.5-1000 nM
How it was run: as §2

MDV3100 [14] = compound: T6, MDV3100; assay: as above; details: exposure time: 5 days; dose range 0.5-1000 nM
How it was run: as §2

[15] = compound: Cn1cc(C2=Nc3cc(NC(=O)C(N)C4CCCCC4)cc4c3C2=CNNC4=O)cn1; assay: as above; details: exposure time: 5 days; dose range 0.5-1000 nM
How it was run: as §2

TIOGUANINE [16] = compound: T7, TIOGUANINE; assay: as above; details: exposure time: 5 days; dose range 0.5-1000 nM
How it was run: as §2

MDAMB453 BREAST
surviving fraction (CANERTINIB [1]; 0.5 nM): 1.04 ± 0.026 | surviving fraction (CANERTINIB [1]; 1 nM): 1 ± 0.016 | surviving fraction (CANERTINIB [1]; 5 nM): 1.01 ± 0.058 | surviving fraction (CANERTINIB [1]; 10 nM): 1.01 ± 0.071 | surviving fraction (CANERTINIB [1]; 50 nM): 1.02 ± 0.047 | surviving fraction (CANERTINIB [1]; 100 nM): 1.07 ± 0.026 | surviving fraction (CANERTINIB [1]; 500 nM): 0.823 ± 0.0089 | surviving fraction (CANERTINIB [1]; 1000 nM): 0.637 ± 0.067 | surviving fraction (SNX-5422 [2]; 0.5 nM): 1.02 ± 0.034 | surviving fraction (SNX-5422 [2]; 1 nM): 1.08 ± 0.036 | surviving fraction (SNX-5422 [2]; 5 nM): 1.08 ± 0.028 | surviving fraction (SNX-5422 [2]; 10 nM): 1.08 ± 0.037 | surviving fraction (SNX-5422 [2]; 50 nM): 0.458 ± 0.055 | surviving fraction (SNX-5422 [2]; 100 nM): 0.254 ± 0.016 | surviving fraction (SNX-5422 [2]; 500 nM): 0.0493 ± 0.013 | surviving fraction (SNX-5422 [2]; 1000 nM): 0.0633 ± 0.017 | surviving fraction (SAPACITABINE [3]; 0.5 nM): 0.988 ± 0.053 | surviving fraction (SAPACITABINE [3]; 1 nM): 0.968 ± 0.053 | surviving fraction (SAPACITABINE [3]; 5 nM): 1 ± 0.058 | surviving fraction (SAPACITABINE [3]; 10 nM): 1.03 ± 0.07 | surviving fraction (SAPACITABINE [3]; 50 nM): 1.01 ± 0.022 | surviving fraction (SAPACITABINE [3]; 100 nM): 1.01 ± 0.067 | surviving fraction (SAPACITABINE [3]; 500 nM): 0.641 ± 0.033 | surviving fraction (SAPACITABINE [3]; 1000 nM): 0.407 ± 0.03 | surviving fraction (BI-2536 [4]; 0.5 nM): 0.994 ± 0.018 | surviving fraction (BI-2536 [4]; 1 nM): 0.763 ± 0.052 | surviving fraction (BI-2536 [4]; 5 nM): 0.178 ± 0.019 | surviving fraction (BI-2536 [4]; 10 nM): 0.156 ± 0.025 | surviving fraction (BI-2536 [4]; 50 nM): 0.173 ± 0.017 | surviving fraction (BI-2536 [4]; 100 nM): 0.171 ± 0.0075 | surviving fraction (BI-2536 [4]; 500 nM): 0.108 ± 0.031 | surviving fraction (BI-2536 [4]; 1000 nM): 0.0703 ± 0.042 | surviving fraction (AFATINIB [5]; 0.5 nM): 1.08 ± 0.061 | surviving fraction (AFATINIB [5]; 1 nM): 1 ± 0.045 | surviving fraction (AFATINIB [5]; 5 nM): 1.05 ± 0.064 | surviving fraction (AFATINIB [5]; 10 nM): 1.05 ± 0.029 | surviving fraction (AFATINIB [5]; 50 nM): 0.777 ± 0.076 | surviving fraction (AFATINIB [5]; 100 nM): 0.668 ± 0.091 | surviving fraction (AFATINIB [5]; 500 nM): 0.576 ± 0.027 | surviving fraction (AFATINIB [5]; 1000 nM): 0.41 ± 0.026 | surviving fraction (MDV3100 [6]; 0.5 nM): 0.953 ± 0.045 | surviving fraction (MDV3100 [6]; 1 nM): 0.942 ± 0.071 | surviving fraction (MDV3100 [6]; 5 nM): 0.962 ± 0.055 | surviving fraction (MDV3100 [6]; 10 nM): 0.98 ± 0.07 | surviving fraction (MDV3100 [6]; 50 nM): 0.956 ± 0.054 | surviving fraction (MDV3100 [6]; 100 nM): 0.967 ± 0.037 | surviving fraction (MDV3100 [6]; 500 nM): 0.985 ± 0.032 | surviving fraction (MDV3100 [6]; 1000 nM): 0.924 ± 0.0079 | surviving fraction ([7]; 0.5 nM): 0.971 ± 0.011 | surviving fraction ([7]; 1 nM): 1.01 ± 0.034 | surviving fraction ([7]; 5 nM): 0.999 ± 0.026 | surviving fraction ([7]; 10 nM): 1.01 ± 0.04 | surviving fraction ([7]; 50 nM): 0.784 ± 0.044 | surviving fraction ([7]; 100 nM): 0.293 ± 0.013 | surviving fraction ([7]; 500 nM): 0.179 ± 0.019 | surviving fraction ([7]; 1000 nM): 0.206 ± 0.011 | surviving fraction (TIOGUANINE [8]; 0.5 nM): 1.01 ± 0.073 | surviving fraction (TIOGUANINE [8]; 1 nM): 0.999 ± 0.053 | surviving fraction (TIOGUANINE [8]; 5 nM): 1.04 ± 0.027 | surviving fraction (TIOGUANINE [8]; 10 nM): 1.02 ± 0.04 | surviving fraction (TIOGUANINE [8]; 50 nM): 1.08 ± 0.03 | surviving fraction (TIOGUANINE [8]; 100 nM): 1.03 ± 0.029 | surviving fraction (TIOGUANINE [8]; 500 nM): 0.98 ± 0.13 | surviving fraction (TIOGUANINE [8]; 1000 nM): 0.864 ± 0.09 | area under dose-response curve (CANERTINIB [9]): 3.19 | area under dose-response curve (SNX-5422 [10]): 2.06 | area under dose-response curve (SAPACITABINE [11]): 3.1 | area under dose-response curve (BI-2536 [12]): 0.857 | area under dose-response curve (AFATINIB [13]): 2.7 | area under dose-response curve (MDV3100 [14]): 3.16 | area under dose-response curve [15]: 2.33 | area under dose-response curve (TIOGUANINE [16]): 3.28
